Data taken from patent US20260262643A1, “HERBICIDAL BENZOXAZINES” (FMC CORPORATION, priority 2022, published 2026).

Experiments:
sedge, umbrella = test: Test D flooded paddy test; type: in vivo, Cyperus difformis; conditions: 250 g ai/ha, applied to paddy water, visual rating after 13 to 14 days, scale 0 to 100 (0 no effect, 100 complete control)
Method: (§1) Plant species in the flooded paddy test selected from barnyardgrass (Echinochloa crus-galli), ducksalad (Heteranthera limosa), rice (Oryza sativa), and sedge, umbrella (small-flower umbrella sedge, Cyperus difformis) were grown to the 2-leaf stage for testing. At time of treatment, test pots were flooded to 3 cm above the soil surface, treated by application of test compounds directly to the paddy water, and then maintained at that water depth for the duration of the test. Treated plants and controls were maintained in a greenhouse for 13 to 14 days, after which time all species were compared to controls and visually evaluated. Plant response ratings, summarized in Table D, are based on a scale of 0 to 100 where 0 is no effect and 100 is complete control. A dash (-) response means no test result.

galium = test: Test C postemergence; type: in vivo, Galium aparine; conditions: 10 days
Procedure, shortened: (§2)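 Seeds sown in loam soil–sand blend received a directed preemergence soil spray of test chemical in non-phytotoxic solvent with surfactant; postemergence plants (2–10 cm, one- to two-leaf stage) were sprayed with the same formulation. Greenhouse-held 10 days, then visually rated for injury versus untreated controls, 0 (no effect) to 100 (complete control).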

pigweed, palmer [1] = test: Test C preemergence; type: in vivo, Amaranthus palmeri; conditions: 0 to 100 scale (0 no effect, 100 complete control); for Plant response rating, Pigweed, Palmer: Preemergence, 500 g ai/ha, visual rating after 10 days; for Pigweed, Palmer plant response rating: Test C, preemergence, 125 g ai/ha
Procedure, shortened: as §2

ragweed [2] = test: Test C postemergence; type: in vivo, Ambrosia artemisiifolia; conditions: 10 days
Procedure, shortened: as §2

ducksalad = test: Test D flooded paddy test; type: in vivo, Heteranthera limosa; conditions: 250 g ai/ha, applied to paddy water, visual rating after 13 to 14 days, scale 0 to 100 (0 no effect, 100 complete control)
Method: as §1

barnyardgrass [3] = test: Test C preemergence; type: in vivo, Echinochloa crusgalli; conditions: 0 to 100 scale (0 no effect, 100 complete control); for Plant response rating, Barnyardgrass: Preemergence, 500 g ai/ha, visual rating after 10 days; for Barnyardgrass plant response rating: Test C, preemergence, 125 g ai/ha
Procedure, shortened: as §2

corn [4] = test: Test C preemergence; type: in vivo, Zea mays; conditions: 0 to 100 scale (0 no effect, 100 complete control); for Plant response rating, Corn: Preemergence, 500 g ai/ha, visual rating after 10 days; for Corn plant response rating: Test C, preemergence, 125 g ai/ha
Procedure, shortened: as §2

pigweed, palmer [5] = test: Test C postemergence; type: in vivo, Amaranthus palmeri; conditions: 10 days
Procedure, shortened: as §2

ryegrass, Italian [6] = test: Test C postemergence; type: in vivo, Lolium multiflorum; conditions: 10 days
Procedure, shortened: as §2

barnyardgrass [7] = test: Test C postemergence; type: in vivo, Echinochloa crusgalli; conditions: 10 days
Procedure, shortened: as §2

corn [8] = test: Test C postemergence; type: in vivo, Zea mays; conditions: 10 days
Procedure, shortened: as §2

soybean [9] = test: Test C preemergence; type: in vivo, Glycine max; conditions: 0 to 100 scale (0 no effect, 100 complete control); for Plant response rating, Soybean: Preemergence, 500 g ai/ha, visual rating after 10 days; for Soybean plant response rating: Test C, preemergence, 125 g ai/ha
Procedure, shortened: as §2

oat, wild [10] = test: Test C preemergence; type: in vivo, Avena fatua; conditions: 0 to 100 scale (0 no effect, 100 complete control); for Plant response rating, Oat, Wild: Preemergence, 500 g ai/ha, visual rating after 10 days; for Oat, Wild plant response rating: Test C, preemergence, 125 g ai/ha
Procedure, shortened: as §2

oat, wild [11] = test: Test C postemergence; type: in vivo, Avena fatua; conditions: 10 days
Procedure, shortened: as §2

barnyardgrass [12] = test: Test D flooded paddy test; type: in vivo, Echinochloa crus-galli; conditions: 250 g ai/ha, applied to paddy water, visual rating after 13 to 14 days, scale 0 to 100 (0 no effect, 100 complete control)
Method: as §1

soybean [13] = test: Test C postemergence; type: in vivo, Glycine max; conditions: 10 days
Procedure, shortened: as §2

ryegrass, Italian [14] = test: Test C preemergence; type: in vivo, Lolium multiflorum; conditions: 0 to 100 scale (0 no effect, 100 complete control); for Plant response rating, Ryegrass, Italian: Preemergence, 500 g ai/ha, visual rating after 10 days; for Ryegrass, Italian plant response rating: Test C, preemergence, 125 g ai/ha
Procedure, shortened: as §2

ragweed [15] = test: Test C preemergence; type: in vivo, Ambrosia artemisiifolia; conditions: 0 to 100 scale (0 no effect, 100 complete control); for Plant response rating, Ragweed: Preemergence, 500 g ai/ha, visual rating after 10 days; for Ragweed plant response rating: Test C, preemergence, 125 g ai/ha
Procedure, shortened: as §2

rice = test: Test D flooded paddy test; type: in vivo, Oryza sativa; conditions: 250 g ai/ha, applied to paddy water, visual rating after 13 to 14 days, scale 0 to 100 (0 no effect, 100 complete control)
Method: as §1

blackgrass [16] = test: Test C postemergence; type: in vivo, Alopecurus myosuroides; conditions: 10 days
Procedure, shortened: as §2

blackgrass [17] = test: Test C preemergence; type: in vivo, Alopecurus myosuroides; conditions: 0 to 100 scale (0 no effect, 100 complete control); for Plant response rating, Blackgrass: Preemergence, 500 g ai/ha, visual rating after 10 days; for Blackgrass plant response rating: Test C, preemergence, 125 g ai/ha
Procedure, shortened: as §2

kochia [18] = test: Test C postemergence; type: in vivo, Bassia scoparia; conditions: 10 days
Procedure, shortened: as §2

kochia [19] = test: Test C preemergence; type: in vivo, Bassia scoparia; conditions: 0 to 100 scale (0 no effect, 100 complete control); for Plant response rating, Kochia: Preemergence, 500 g ai/ha, visual rating after 10 days; for Kochia plant response rating: Test C, preemergence, 125 g ai/ha
Procedure, shortened: as §2

wheat [20] = test: Test C preemergence; type: in vivo, Triticum aestivum; conditions: 0 to 100 scale (0 no effect, 100 complete control); for Plant response rating, Wheat: Preemergence, 500 g ai/ha, visual rating after 10 days; for Wheat plant response rating: Test C, preemergence, 125 g ai/ha
Procedure, shortened: as §2

wheat [21] = test: Test C postemergence; type: in vivo, Triticum aestivum; conditions: 10 days
Procedure, shortened: as §2

horseweed = test: Test C postemergence; type: in vivo, Erigeron canadensis; conditions: 10 days
Procedure, shortened: as §2

green foxtail = test: Test C preemergence; type: in vivo, Setaria viridis; conditions: 0 to 100 scale (0 no effect, 100 complete control); for Plant response rating, Foxtail, Green: Preemergence, 500 g ai/ha, visual rating after 10 days; for Foxtail, Green plant response rating: Test C, preemergence, 125 g ai/ha
Procedure, shortened: as §2

[22] = 125 g ai/ha, postemergence, 0 to 100 scale, 0 no effect, 100 complete control
[23] = Postemergence, 500 g ai/ha, visual 0 to 100 scale (0 no effect, 100 complete control)

## Cc1ccc(-n2cnc(C3(C)CC3)n2)cc1C(=O)N1C[C@H](C)Oc2c(Cl)cccc21 [Compound 252]
sedge, umbrella
  Plant response rating, Sedge, Umbrella (Flood): 15
galium; [22]
  Plant response rating, Galium: 100
galium; [23]
  Plant response rating, Galium: 100
pigweed, palmer [1]
  Plant response rating, Pigweed, Palmer: 100
  Pigweed, Palmer plant response rating: 100
Ragweed [2]; [22]
  Plant response rating, Ragweed: 70
Ragweed [2]; [23]
  Plant response rating, Ragweed: 80
ducksalad
  Plant response rating, Ducksalad (Flood): 15
Barnyardgrass [3]
  Plant response rating, Barnyardgrass: 90
  Barnyardgrass plant response rating: 80
Corn [4]
  Plant response rating, Corn: 0
  Corn plant response rating: 0
pigweed, palmer [5]; [22]
  Plant response rating, Pigweed, Palmer: 90
pigweed, palmer [5]; [23]
  Plant response rating, Pigweed, Palmer: 100
ryegrass, Italian [6]; [22]
  Plant response rating, Ryegrass, Italian: 80
ryegrass, Italian [6]; [23]
  Plant response rating, Ryegrass, Italian: 80
Barnyardgrass [7]; [22]
  Plant response rating, Barnyardgrass: 60
Barnyardgrass [7]; [23]
  Plant response rating, Barnyardgrass: 80
Corn [8]; [22]
  Plant response rating, Corn: 60
Corn [8]; [23]
  Plant response rating, Corn: 80
Soybean [9]
  Plant response rating, Soybean: 80
  Soybean plant response rating: 20
oat, wild [10]
  Plant response rating, Oat, Wild: 70
  Oat, Wild plant response rating: 20
oat, wild [11]; [22]
  Plant response rating, Oat, Wild: 10
oat, wild [11]; [23]
  Plant response rating, Oat, Wild: 10
Barnyardgrass [12]
  Plant response rating, Barnyardgrass (Flood): 35
Soybean [13]; [22]
  Plant response rating, Soybean: 100
Soybean [13]; [23]
  Plant response rating, Soybean: 100
ryegrass, Italian [14]
  Plant response rating, Ryegrass, Italian: 80
  Ryegrass, Italian plant response rating: 60
Ragweed [15]
  Plant response rating, Ragweed: 30
  Ragweed plant response rating: 0
rice
  Plant response rating, Rice (Flood): 0
Blackgrass [16]; [22]
  Plant response rating, Blackgrass: 80
Blackgrass [16]; [23]
  Plant response rating, Blackgrass: 80
Blackgrass [17]
  Plant response rating, Blackgrass: 20
  Blackgrass plant response rating: 0
Kochia [18]; [22]
  Plant response rating, Kochia: 90
Kochia [18]; [23]
  Plant response rating, Kochia: 100
Kochia [19]
  Plant response rating, Kochia: 100
  Kochia plant response rating: 100
Wheat [20]
  Plant response rating, Wheat: 10
  Wheat plant response rating: 0
Wheat [21]; [22]
  Plant response rating, Wheat: 20
Wheat [21]; [23]
  Plant response rating, Wheat: 30
horseweed; [22]
  Plant response rating, Horseweed: 20
horseweed; [23]
  Plant response rating, Horseweed: 50
Green foxtail
  Plant response rating, Foxtail, Green: 100
  Foxtail, Green plant response rating: 100

## COC[C@H]1CN(C(=O)c2cc(-n3cnc(C4CCC4)n3)ccc2OC)c2cccc(Cl)c2O1 [Compound 236]
sedge, umbrella
  Plant response rating, Sedge, Umbrella (Flood): 95
galium; [22]
  Plant response rating, Galium: 100
galium; [23]
  Plant response rating, Galium: 100
pigweed, palmer [1]
  Plant response rating, Pigweed, Palmer: 100
  Pigweed, Palmer plant response rating: 80
Ragweed [2]; [22]
  Plant response rating, Ragweed: 80
Ragweed [2]; [23]
  Plant response rating, Ragweed: 90
ducksalad
  Plant response rating, Ducksalad (Flood): 75
Barnyardgrass [3]
  Plant response rating, Barnyardgrass: 80
  Barnyardgrass plant response rating: 20
Corn [4]
  Plant response rating, Corn: 0
  Corn plant response rating: 0
pigweed, palmer [5]; [22]
  Plant response rating, Pigweed, Palmer: 90
pigweed, palmer [5]; [23]
  Plant response rating, Pigweed, Palmer: 90
ryegrass, Italian [6]; [22]
  Plant response rating, Ryegrass, Italian: 60
ryegrass, Italian [6]; [23]
  Plant response rating, Ryegrass, Italian: 90
Barnyardgrass [7]; [22]
  Plant response rating, Barnyardgrass: 40
Barnyardgrass [7]; [23]
  Plant response rating, Barnyardgrass: 90
Corn [8]; [22]
  Plant response rating, Corn: 30
Corn [8]; [23]
  Plant response rating, Corn: 80
Soybean [9]
  Plant response rating, Soybean: 70
  Soybean plant response rating: 40
oat, wild [10]
  Plant response rating, Oat, Wild: 30
  Oat, Wild plant response rating: 10
oat, wild [11]; [22]
  Plant response rating, Oat, Wild: 10
oat, wild [11]; [23]
  Plant response rating, Oat, Wild: 40
Barnyardgrass [12]
  Plant response rating, Barnyardgrass (Flood): 0
Soybean [13]; [22]
  Plant response rating, Soybean: 100
Soybean [13]; [23]
  Plant response rating, Soybean: 100
ryegrass, Italian [14]
  Plant response rating, Ryegrass, Italian: 50
  Ryegrass, Italian plant response rating: 50
Ragweed [15]
  Plant response rating, Ragweed: 80
  Ragweed plant response rating: 20
rice
  Plant response rating, Rice (Flood): 0
Blackgrass [16]; [22]
  Plant response rating, Blackgrass: 20
Blackgrass [16]; [23]
  Plant response rating, Blackgrass: 90
Blackgrass [17]
  Plant response rating, Blackgrass: 10
  Blackgrass plant response rating: 0
Kochia [18]; [22]
  Plant response rating, Kochia: 90
Kochia [18]; [23]
  Plant response rating, Kochia: 90
Kochia [19]
  Plant response rating, Kochia: 90
  Kochia plant response rating: 40
Wheat [20]
  Plant response rating, Wheat: 10
  Wheat plant response rating: 0
Wheat [21]; [22]
  Plant response rating, Wheat: 20
Wheat [21]; [23]
  Plant response rating, Wheat: 30
horseweed; [22]
  Plant response rating, Horseweed: 70
horseweed; [23]
  Plant response rating, Horseweed: 70
Green foxtail
  Plant response rating, Foxtail, Green: 100
  Foxtail, Green plant response rating: 90
